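Briefly, cells in 96-well plates were exposed to five compound concentrations for 48 h, and endpoints were estimated by linear interpolation. Abbreviation: GI50, concentration required for 50% inhibition of growth. TGI is the concentration that stops growth completely.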
Key:
Assay in all cases: growth of human tumour cells (NCI), 48 h
[1] = system: 786-0 renal
[2] = system: A549 NSCLC
[3] = system: ACHN renal
[4] = system: BT-549 breast
[5] = system: CAKI-1 renal
[6] = system: CCRF-CEM leukemia
[7] = system: COLO 205 colon
[8] = system: DU-145 prostate
[9] = system: HCC-2998 colon
[10] = system: HCT-116 colon
[11] = system: HCT-15 colon
[12] = system: HOP-62 NSCLC
[13] = system: HOP-92 NSCLC
[14] = system: HS 578T breast
[15] = system: HT29 colon
[16] = system: IGROV1 ovarian
[17] = system: K-562 leukemia
[18] = system: KM12 colon
[19] = system: LOX IMVI melanoma
[20] = system: M14 melanoma
[21] = system: MALME-3M melanoma
[22] = system: MCF7 breast
[23] = system: MDA-MB-231 breast
[24] = system: MDA-MB-435
[25] = system: MOLT-4 leukemia
[26] = system: NCI-H226 lung
[27] = system: NCI-H23 lung
[28] = system: NCI-H460 lung
[29] = system: NCI-H522 lung
[30] = system: NCI/ADR-RES ovarian
[31] = system: OVCAR-3 ovarian
[32] = system: OVCAR-4 ovarian
[33] = system: OVCAR-5 ovarian
[34] = system: OVCAR-8 ovarian
[35] = system: PC-3 prostate
[36] = system: RPMI-8226 leukemia
[37] = system: RXF 393 renal
[38] = system: SF-268 CNS
[39] = system: SF-295 CNS
[40] = system: SF-539 CNS
[41] = system: SK-MEL-2 melanoma
[42] = system: SK-MEL-28 melanoma
[43] = system: SK-MEL-5 melanoma
[44] = system: SK-OV-3 ovarian
[45] = system: SN12C renal
[46] = system: SNB-19 CNS
[47] = system: SR leukemia
[48] = system: SW-620 colon
[49] = system: T-47D breast
[50] = system: TK-10 renal
[51] = system: U251 CNS
[52] = system: UACC-257 melanoma
[53] = system: UACC-62 melanoma
[54] = system: UO-31 renal
[55] = system: A498 renal
[56] = system: EKVX NSCLC
[57] = system: SNB-75 CNS

Nc1c(C(=O)Nc2ccccc2)sc2nc3c(cc12)CN(Cc1ccccc1)CC3
GI50 [1]: 13 µM
TGI [1]: > 100 µM
GI50 [2]: 13.9 µM
TGI [2]: > 100 µM
GI50 [3]: 5.5 µM
TGI [3]: > 100 µM
GI50 [4]: 16.8 µM
TGI [4]: 92.3 µM
GI50 [5]: 19.7 µM
TGI [5]: > 100 µM
GI50 [6]: 50.3 µM
TGI [6]: > 100 µM
GI50 [7]: 24 µM
TGI [7]: > 100 µM
GI50 [8]: 14.8 µM
TGI [8]: > 100 µM
GI50 [9]: 76.1 µM
TGI [9]: > 100 µM
GI50 [10]: 11 µM
TGI [10]: > 100 µM
GI50 [11]: 24.7 µM
TGI [11]: > 100 µM
GI50 [12]: 4.11 µM
TGI [12]: 33.3 µM
GI50 [13]: 2.48 µM
TGI [13]: 20.4 µM
GI50 [14]: 2.07 µM
TGI [14]: 7.55 µM
GI50 [15]: 24.7 µM
TGI [15]: > 100 µM
GI50 [16]: 37.8 µM
TGI [16]: > 100 µM
GI50 [17]: 9.1 µM
TGI [17]: > 100 µM
GI50 [18]: 19.1 µM
TGI [18]: > 100 µM
GI50 [19]: 10.5 µM
TGI [19]: > 100 µM
GI50 [20]: 30.8 µM
TGI [20]: > 100 µM
GI50 [21]: 3.8 µM
TGI [21]: > 100 µM
GI50 [22]: 12.1 µM
TGI [22]: > 100 µM
GI50 [23]: 5.81 µM
TGI [23]: > 100 µM
GI50 [24]: 3.43 µM
TGI [24]: 71.6 µM
GI50 [25]: 31.3 µM
TGI [25]: > 100 µM
GI50 [26]: 4.91 µM
TGI [26]: > 100 µM
GI50 [27]: 21.7 µM
TGI [27]: > 100 µM
GI50 [28]: 7.51 µM
TGI [28]: > 100 µM
GI50 [29]: 32.5 µM
TGI [29]: > 100 µM
GI50 [30]: 16.3 µM
TGI [30]: > 100 µM
GI50 [31]: 11.4 µM
TGI [31]: > 100 µM
GI50 [32]: 1.97 µM
TGI [32]: 23.1 µM
GI50 [33]: > 100 µM
TGI [33]: > 100 µM
GI50 [34]: 16.8 µM
TGI [34]: > 100 µM
GI50 [35]: 27.1 µM
TGI [35]: > 100 µM
GI50 [36]: 55.8 µM
TGI [36]: > 100 µM
GI50 [37]: 3.15 µM
TGI [37]: 54.3 µM
GI50 [38]: 5.62 µM
TGI [38]: > 100 µM
GI50 [39]: 5.45 µM
TGI [39]: > 100 µM
GI50 [40]: 2.78 µM
TGI [40]: > 100 µM
GI50 [41]: 20.3 µM
TGI [41]: > 100 µM
GI50 [42]: 23.2 µM
TGI [42]: > 100 µM
GI50 [43]: 9.58 µM
TGI [43]: > 100 µM
GI50 [44]: 3.53 µM
TGI [44]: > 100 µM
GI50 [45]: 65.7 µM
TGI [45]: > 100 µM
GI50 [46]: 18.3 µM
TGI [46]: > 100 µM
GI50 [47]: 13.1 µM
TGI [47]: > 100 µM
GI50 [48]: 20.8 µM
TGI [48]: > 100 µM
GI50 [49]: 16.2 µM
TGI [49]: > 100 µM
GI50 [50]: 4.09 µM
TGI [50]: 54.7 µM
GI50 [51]: 13.9 µM
TGI [51]: > 100 µM
GI50 [52]: 52.8 µM
TGI [52]: > 100 µM
GI50 [53]: 13.9 µM
TGI [53]: > 100 µM
GI50 [54]: 6.14 µM
TGI [54]: > 100 µM

Cc1ccc2c(c1)-c1c(C#N)c(N)nc(-c3ccccc3)c1CCS2(=O)=O
TGI [1]: > 100 µM
TGI [55]: > 80.2 µM
TGI [2]: > 100 µM
TGI [3]: > 100 µM
TGI [4]: > 43.4 µM
TGI [5]: > 100 µM
TGI [6]: > 100 µM
TGI [7]: > 56.3 µM
TGI [8]: > 38.9 µM
TGI [56]: > 100 µM
TGI [9]: > 100 µM
TGI [10]: > 100 µM
TGI [11]: > 100 µM
TGI [12]: > 100 µM
TGI [13]: > 100 µM
TGI [14]: > 47.6 µM
TGI [15]: > 35 µM
TGI [16]: > 51.1 µM
TGI [17]: 11.7 µM
TGI [18]: > 100 µM
TGI [19]: > 100 µM
TGI [20]: > 100 µM
TGI [21]: > 100 µM
TGI [22]: > 100 µM
TGI [23]: > 100 µM
TGI [24]: > 36.5 µM
TGI [25]: > 100 µM
TGI [26]: > 30.2 µM
TGI [27]: > 62.7 µM
TGI [28]: > 100 µM
TGI [29]: 4.58 µM
TGI [30]: > 46.5 µM
TGI [31]: > 100 µM
TGI [32]: > 100 µM
TGI [33]: > 100 µM
TGI [34]: > 95.5 µM
TGI [35]: > 100 µM
TGI [36]: 32.9 µM
TGI [38]: > 100 µM
TGI [39]: > 100 µM
TGI [40]: > 100 µM
TGI [41]: > 100 µM
TGI [42]: > 100 µM
TGI [43]: > 24 µM
TGI [44]: 46 µM
TGI [45]: > 100 µM
TGI [46]: > 46.9 µM
TGI [57]: 59.2 µM
TGI [48]: > 100 µM
TGI [49]: > 100 µM
TGI [50]: > 100 µM
TGI [51]: > 90.7 µM
TGI [52]: > 100 µM
TGI [53]: > 100 µM
TGI [54]: 97 µM
